# From patent EP0564356A1, “4-phenylaminomethylimidazole derivatives, process for their preparation, angiotensin II receptor antagonists and their application in therapy” (FOURNIER INDUSTRIE ET SANTE, priority 1992, dated 1993)
# Biological target: T1, récepteur vasculaire de l'angiotensine II (Oryctolagus cuniculus, UniProt P34976)
# T1 construct: réponse contractile induite par l'angiotensine II dans des anneaux isolés d'aorte de lapin; from tissue; host or cells: isolated rabbit aortic rings
# T1 sequence (P34976 1-359): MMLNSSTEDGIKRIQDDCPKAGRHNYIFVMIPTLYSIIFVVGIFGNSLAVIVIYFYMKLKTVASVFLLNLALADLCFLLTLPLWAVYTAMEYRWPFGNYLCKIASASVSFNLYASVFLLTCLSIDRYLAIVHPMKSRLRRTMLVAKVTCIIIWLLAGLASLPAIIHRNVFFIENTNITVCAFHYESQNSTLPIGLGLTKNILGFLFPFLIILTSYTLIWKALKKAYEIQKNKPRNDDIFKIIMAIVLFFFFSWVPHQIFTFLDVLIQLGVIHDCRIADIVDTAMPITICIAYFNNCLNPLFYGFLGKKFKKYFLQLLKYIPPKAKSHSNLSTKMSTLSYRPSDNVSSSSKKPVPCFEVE
# Experiment: Antagonism of the angiotensin II-induced contractile response in isolated rabbit aortic rings
# Set-up: species or system lapin
# Conditions: contraction by angiotensine II 3.10⁻⁹ M, test product preincubated 15 minutes, 37°C
# Method: L'activité des composés selon l'invention comme antagonistes du récepteur vasculaire de l'angiotensine II a été évaluée par leur efficacité à antagoniser la réponse contractile induite par l'angiotensine II dans des anneaux isolés d'aorte de lapin. Les anneaux sont suspendus dans un bain de Krebs-Henseleit maintenu à 37°C et aéré par un mélange O₂/CO₂ (95/5 , v/v) puis étirés à une tension de repos de 2 g. Après une heure de repos, on provoque une contraction par l'angiotensine II (3.10⁻⁹ M) en présence du produit à tester préincubé pendant 15 minutes. La concentration (exprimée en nanomole) de produit à tester produisant une inhibition de 50 % de la réponse contractile (IC₅₀) est calculée à partir de la courbe concentration-réponse . Les résultats obtenus avec un certain nombre de composés selon l'invention sont regroupés dans le tableau VIII.
row,Structure (SMILES),IC50 [nM]
1,CCCCc1ncc(Cn2c(C(=O)O)cc3ccccc32)n1Cc1ccc(C(=O)O)cc1 [compound 33],7.1
2,CCCCc1nc(Cl)c(Cn2c(C(=O)O)cc3ccccc32)n1Cc1ccc(C(=O)O)cc1 [compound 34],8.4
3,CCCCc1ncc(CNc2cc([N+](=O)[O-])ccc2C(=O)O)n1Cc1ccc(C(=O)O)cc1 [compound 35],1.2
4,CCCc1ncc(CNc2ccccc2C(=O)O)n1Cc1ccc(C(=O)O)cc1 [compound 36],7
5,CCCCc1nc(Cl)c(CNc2c(Cl)cc(Cl)cc2C(=O)O)n1Cc1ccc(C(=O)O)cc1 [compound 39],106
6,CCCCc1nc(Cl)c(CNc2c(C(=O)O)cc(OC)c(OC)c2OC)n1Cc1ccc(C(=O)O)cc1 [compound 40],57.6
7,CCCCc1nc(Cl)c(CNc2ccccc2C(=O)O)n1Cc1ccc(C(=O)O)cc1Cl [compound 41],5.1
8,CCCc1nc(Cl)c(CNc2ccccc2C(=O)O)n1Cc1ccc(C(=O)O)cc1 [compound 42],5.1
9,CCCCc1nc(C(F)(F)F)c(CNc2ccccc2C(=O)O)n1Cc1ccc(C(=O)O)cc1 [compound 43],6.3
10,CCCCc1nc(I)c(CNc2ccccc2C(=O)O)n1Cc1ccc(C(=O)O)cc1 [compound 44],5.3
11,CCCCc1nc(Cl)c(CNc2ccc(C)cc2C(=O)O)n1Cc1ccc(C(=O)O)cc1 [compound 45],6.7
12,CCCCc1nc(Cl)c(CNc2cc([N+](=O)[O-])ccc2C(=O)O)n1Cc1ccc(C(=O)O)cc1 [compound 46],10.5
13,CCCCc1nc(Cl)c(CNc2cc3ccccc3cc2C(=O)O)n1Cc1ccc(C(=O)O)cc1 [compound 47],71.3
14,CCCCc1nc(Cl)c(CNc2cc(Cl)ccc2C(=O)O)n1Cc1ccc(C(=O)O)cc1 [compound 48],5.3
15,CCCCc1nc(Cl)c(CNc2ccc(Cl)cc2C(=O)O)n1Cc1ccc(C(=O)O)cc1 [compound 49],13.2
16,CCCCc1nc(Cl)c(CNc2ccccc2C(=O)O)n1Cc1ccc(C(=O)O)cc1 [compound 50],5.7
17,CCCCc1nc(Cl)c(CNc2ccccc2C(=O)O)n1Cc1ccc(-c2nnn[nH]2)cc1 [compound 51],10.8
18,CCCCc1nc(Cl)c(CNc2ccccc2-c2nnn[nH]2)n1Cc1ccc(C(=O)O)cc1 [compound 52],40.2
19,CCCCc1nc(Cl)c(CN(C(C)=O)c2ccccc2C(=O)O)n1Cc1ccc(C(=O)O)cc1 [compound 55],69.1

row,Structure (SMILES),IC50 [nM]
1,CCCCc1nc(Cl)c(CNc2ccccc2C(=O)O)n1Cc1ccc(C(=O)NS(=O)(=O)c2ccccc2C)cc1 [compound 66],8.8
2,CCCCc1ncc(CNc2ccccc2C(=O)O)n1Cc1ccc(C(=O)NS(=O)(=O)c2ccccc2C)cc1 [compound 67],1.5
3,CCCCc1ncc(CNc2ccccc2C(=O)OCC(=O)N(CC)CC)n1Cc1ccc(C(=O)OC)cc1 [compound 76],90
4,CCCCc1ncc(CNc2ccccc2C(=O)OCC(=O)N(CCC)CCC)n1Cc1ccc(C(=O)O)cc1 [compound 134],35
5,CCCCc1ncc(CNc2ccccc2C(=O)OCC(=O)OCC)n1Cc1ccc(C(=O)O)cc1 [compound 141],10
6,CCCCc1ncc(CNc2ccccc2C(=O)OC(C)OC(=O)C2CCCCC2)n1Cc1ccc(C(=O)O)cc1 (centres unmarked) [compound 145],40
7,CCCCCC(=O)OCOC(=O)c1ccccc1NCc1cnc(CCCC)n1Cc1ccc(C(=O)O)cc1 [compound 148],12
8,CCCCc1ncc(CNc2ccccc2C(=O)OCOC(=O)CCC)n1Cc1ccc(C(=O)O)cc1 [compound 149],5
9,CCCCc1ncc(CNc2ccccc2C(=O)OCC(=O)CC)n1Cc1ccc(C(=O)O)cc1 [compound 155],8.7
10,CCCCc1ncc(CNc2ccccc2C(=O)OCCc2ccccc2)n1Cc1ccc(C(=O)O)cc1 [compound 156],82
11,CCCCc1ncc(CNc2ccccc2C(=O)Oc2ccccc2)n1Cc1ccc(C(=O)O)cc1 [compound 157],54
12,CCCCc1ncc(CNc2ccccc2C(=O)OCCOC)n1Cc1ccc(C(=O)O)cc1 [compound 158],75
13,CCCCc1ncc(CNc2ccccc2C(=O)OCCC(C)C)n1Cc1ccc(C(=O)O)cc1 [compound 161],64
14,CCCCc1ncc(CNc2ccccc2C(=O)OCC2CC2)n1Cc1ccc(C(=O)O)cc1 [compound 163],50
15,CCCCc1ncc(CNc2ccccc2C(=O)OCC(C)C)n1Cc1ccc(C(=O)O)cc1 [compound 164],40
16,CCCCOC(=O)c1ccccc1NCc1cnc(CCCC)n1Cc1ccc(C(=O)O)cc1 [compound 166],15
17,CCCCCOC(=O)c1ccccc1NCc1cnc(CCCC)n1Cc1ccc(C(=O)O)cc1 [compound 170],80
18,CCCCc1ncc(CNc2ccccc2C(=O)O)n1Cc1ccc(C(=O)OCC)cc1 [compound 174],80
19,CCCCc1ncc(CNc2ccccc2C(=O)O)n1Cc1ccc(C(=O)OCC2CC2)cc1 [compound 178],67

row,Structure (SMILES),IC50 [nM]
1,CCCCc1ncc(CNc2ccccc2C(=O)OCC(=O)N(CCC)CCC)n1Cc1ccc(C(=O)OCC(=O)N(CCC)CCC)cc1 [compound 181],80
2,CCCCc1ncc(CNc2ccccc2C(=O)OCOC(=O)CCC)n1Cc1ccc(C(=O)NS(=O)(=O)c2ccccc2C)cc1 [compound 187],7
3,CCCCc1nc(SC)c(CNc2ccccc2C(=O)O)n1Cc1ccc(C(=O)O)cc1 [compound 198],4.6
4,CCCCc1ncc(CNc2ccccc2C(=O)O)n1Cc1ccc(C(=O)NS(=O)(=O)c2cccc(Cl)c2)cc1 [compound 201],10
5,CCCCc1ncc(CNc2ccccc2C(=O)O)n1Cc1ccc(C(=O)NS(=O)(=O)c2ccc(Cl)cc2)cc1 [compound 202],14.7
6,CCCCc1ncc(CNc2ccccc2C(=O)O)n1Cc1ccc(C(=O)NS(=O)(=O)c2ccccc2)cc1 [compound 203],4.4
7,CCCCc1ncc(CNc2ccccc2C(=O)O)n1Cc1ccc(C(=O)NS(=O)(=O)c2ccc(OC)cc2)cc1 [compound 204],9.5
8,CCCCc1ncc(CNc2ccccc2C(=O)O)n1Cc1ccc(C(=O)NS(C)(=O)=O)cc1 [compound 205],5.5
9,CCCCc1ncc(CNc2ccccc2C(N)=O)n1Cc1ccc(C(=O)O)cc1 [compound 209],70
10,CCCCNC(=O)c1ccccc1NCc1cnc(CCCC)n1Cc1ccc(C(=O)O)cc1 [compound 210],84
11,CCCCc1ncc(CNc2ccccc2C(=O)O)n1Cc1ccc(C(=O)NS(=O)(=O)c2ccccc2Cl)cc1 [compound 211],0.8
12,CCCc1ncc(CNc2cc([N+](=O)[O-])ccc2C(=O)O)n1Cc1ccc(C(=O)O)cc1 [compound 212],46
13,CCCCc1ncc(CNc2cc(N=[N+]=[N-])ccc2C(=O)O)n1Cc1ccc(C(=O)O)cc1 [compound 226],6
14,CCCCc1ncc(CNc2ccccc2C(=O)O)n1Cc1ccc(C(=O)NS(=O)(=O)c2ccccc2N=[N+]=[N-])cc1 [compound 228],2
15,"CCCCc1ncc(CNc2ccccc2C(=O)OCC2COC(C)(C)O2)n1Cc1ccc(C(=O)O)cc1 (centres unmarked) [exemple 26, acide 2-[[[2-butyl-1-[(4-carboxyphényl)méthyl]-1H-imidazol-5-yl]méthyl]amino]-benzoïque, 2,2-diméthyl-1,3-dioxolane-4-yl-méthyl ester]",100
16,"CCCCc1ncc(CNc2ccccc2C(=O)OCC(O)CO)n1Cc1ccc(C(=O)O)cc1 (centres unmarked) [exemple 28, acide 2-[[[2-butyl-1-[(4-carboxyphényl)méthyl]-1H-imidazol-5-yl]méthyl]amino]-benzoïque, 2,3-dihydroxy-propyl ester]",80
17,"CCCCc1ncc(CNc2ccccc2C(=O)O)n1Cc1ccc(C(=O)O)cc1 [exemple 32, acide 2-[[[2-butyl-1-[(4-carboxyphényl)méthyl]-1H-imidazol-5-yl]méthyl]amino]-benzoïque]",3.6
18,"CCCCc1ncc(CNc2ccccc2C(=O)OCC(=O)N(CC)CC)n1Cc1ccc(C(=O)OCC(=O)N(CC)CC)cc1 [exemple 68, acide 2-[[[2-butyl-1-[(4-((((diéthylamino)carbonyl)méthoxy)carbonyl)phényl)méthyl]-1H-imidazol-5-yl]méthyl]amino]-benzoïque, ((diéthylamino)carbonyl)méthyl ester]",30
